US4808609A, “Amino-(hydroxy)alkoxy-4-phenylpropyl indoles having antiarrythmic activity” (Roussel Uclaf, priority 1985, dated 1989)

Legend:
Caudal arteries of rats = assay: Anti-calcic activity in vitro (inhibition of K+ depolarization contraction of caudal arteries of rats); assay type: cell-based; conditions: rat caudal artery spirals, 100 mM K+, Ca2+ 0.1 to 3.0 mM, 37° C.; read-out: IC 50 (inhibits by 50% the contraction due to the K+ ions)
Method: Caudal arteries of rats were cut into spirals and attached to tension indicators and were kept in tanks of 25 ml of Krebs buffer-sodium bicarbonate (NaCl: 120.8 mM, KCl: 5.9 mM, MgCl2 : 1.2 mM, NaH2 PO4 : 1.2 mM, NaHCO3 : 15.5 mM, glucose: 12.6 mM) at 37° C. gassed with a mixture of O2 : 95%--CO2 --5%. The preparations were depolarized by a buffer solution with a concentration of 100 mM of K^+ ions (NaCl: 26.7 mM, KCl: 100 mM, MgCl2 1.2 mM, NaH2 PO4 : 1.3 mM, NaHCO3 : 15.5 mM, glucose: 12.6 mM).
250 μl of solutions of calcium chloride were added so that an increasing range of concentrations of Ca^2+ ions going from 0.1 to 3.0 mM was obtained. The contractions of the arteries were recorded and in this way a control range was established. The operation was repeated with the range of Ca^2+ ions every 15 minutes, and the preparation was washed four times after each range. When a stable response was obtained, the operation was carried out with the ranges of Ca^2+ ions in the presence of different concentrations of the product under test until a stable response was obtained.
The contractions of the arteries depend on the entry of the Ca^2+ ions into the cells of the smooth muscles and they are caused by the depolarization of the smooth muscle by the K^+ ions by the action of the noradrenaline liberated at the presynaptic level. By repeating the operation with the arteries denervated by the action of 6-OH dopamine, the action due to the noradrenaline alone is suppressed.
The results are expressed in IC 50 (inhibiting concentration 50) which is the concentration of the product under test which inhibits by 50% the contraction due to the K^+ ions.

[1] = system: disturbances of the cardiac rhythm (aconitine); assay: Anti-arrhythmic activity in the rat (aconitine-induced cardiac rhythm disturbances); assay type: in vivo
Method: Male rats weighing 300-350 g anesthetized intraperitoneally with 1.20 g/kg of urethane were tracheotomized and subjected to artificial respiration (40-50 breaths of 3 ml/minute). Needles were implanted subcutaneously to record the eletrocardiogram of the rats on the derivation signal DII. The products under test were administered intravenously or orally. Five minutes after the administration of the product intravenously or 1 hour after administration orally, the jugular vein of the rats was perfused with 10 μg/min. of an aconitine solution and the time was noted of the appearance of disturbances of the cardiac rhythm (10 μg of aconitine corresponding to the perfusion of a volume of 0.2 ml of solution. The results were expressed as a percentage of the extension of the time of appearance of the cardiac rhythm disturbances as compared to controls and as a function of the dose of the product under test.

mice = assay: Study of the acute toxicity (oral, mice); assay type: in vivo
Method: The lethal doses LD0 were evaluated for the different compounds tested after oral administration to mice.

[2] = IV, 0.5 mg/kg, aconitine five minutes after administration
[3] = oral, 10 mg/kg, aconitine 1 hour after administration
[4] = IV, 2.5 mg/kg, aconitine five minutes after administration

| Compound | IC50 (Caudal arteries of rats) [nM] | % extension of time of appearance of cardiac rhythm disturbances [1, 2] [%] | LD0 (maximum dose which does not cause any mortality in 8 days) (mice) [mg/kg] | further results |
| --- | --- | --- | --- | --- |
| CC(C)(C)NCC(O)COc1ccccc1C(=O)CCc1cccc2[nH]ccc12 (stereo not shown) [Example 1, (E) butenedioate (1,2) of 1-[2-[3-(1,1-dimethylethylamino)-2-hydroxypropoxy]-phenyl]-3-(1H-indol-4-yl)-1-propanone] | 400 | 28 | 100 | % extension of time of appearance of cardiac rhythm disturbances ([1]; oral, 5 mg/kg, aconitine 1 hour after administration): 41%; % extension of time of appearance of cardiac rhythm disturbances [1, 3]: 39%; % extension of time of appearance of cardiac rhythm disturbances ([1]; oral, 25 mg/kg, aconitine 1 hour after administration): 142% |
| CCCNCC(O)COc1ccccc1C(=O)CCc1cccc2[nH]ccc12 (stereo not shown) [Example 2, (E) butenedioate (1,2) 1-[2-[2-hydroxy-3-propylamino-propoxy]-phenyl]-3-(1H-indol-4-yl)-1-propanone] | 3800 | – | 100 | % extension of time of appearance of cardiac rhythm disturbances ([1]; IV, 1 mg/kg, aconitine five minutes after administration): 32% |
| CC(C)(C)NCC(O)COc1ccccc1C(=O)CCc1cccc2c1CC(=O)N2 (stereo not shown) [Example 5, 1,3-dihydro-4-[3-[2-[3-(1,1-dimethylethylamino)-2-hydroxypropoxy]-phenyl]-3-oxo-propyl]-2H-indol-2-one] | – | 66 | > 400 | % extension of time of appearance of cardiac rhythm disturbances [1, 3]: 47% |
| CCCNCC(O)COc1ccccc1C(=O)CCc1cccc2c1CC(=O)N2 (stereo not shown) [Example 6, 1,3-dihydro-4-[3-oxo-3-[2-(2-hydroxy-3-propylamino-propoxy)-phenyl]-propyl]-2H-indol-2-one] | 3600 | – | 100 | % extension of time of appearance of cardiac rhythm disturbances ([1]; IV, 0.25 mg/kg, aconitine five minutes after administration): 31% |
| CC(C)(C)NCC(O)COc1ccccc1CCCc1cccc2[nH]ccc12 (stereo not shown) [Example 7, 1-(1,1-dimethylethylamino)-3-[2-[3-(1H-indol-4-yl)-propyl]-phenoxy]-2-propanol] | 640 | – | > 400 | % extension of time of appearance of cardiac rhythm disturbances [1, 4]: 41% |
| CCCNCC(O)COc1ccccc1CCCc1cccc2[nH]ccc12 (stereo not shown) [Example 8, 1-[2-[3-(1H-indol-4-yl)-propyl]-phenoxy]-3-propylamino-2-propanol] | 1400 | – | > 400 | % extension of time of appearance of cardiac rhythm disturbances [1, 4]: 25.5% |
| CCCNCC(O)COc1ccccc1CCCc1cccc2c1CC(=O)N2 (stereo not shown) [Example 9, 1,3-dihydro-4-[3-[2-[2-hydroxy-3-propylamino-propoxy]-phenyl]-propyl]-2H-indol-2-one] | – | 45 | – | – |
